Data published in patent publication US9993562B2, “Metallic gold cluster molecules as therapeutic agents for arthritic animals” (priority 2016, dated 2018).
No end group written: not given here.

Columns and labels:
[1] = Effect of treatment on body weight of type II collagen immunized mice; format: in vivo, DBA/1 male mice; settings: mean ± sd
Method: DBA/1 male mice weighted 20-22 grams were purchased from Hua-Fu-Kang Biotechnology Limited, Beijing, China. Type II collagen and Complete Freund's Adjuvant were purchased from Chondrex Inc., Redmond, Wash., USA. […] Gold25(peptide)9 cluster molecules were prepared according to Example 1.
(§1) Type II collagen was dissolved in 0.1 mM acetic acid solution and was emulsified with equal volume of Complete Freund's Adjuvant to make a 1.0 mg/ml Type II collagen emulsion. After one week of resting and environment adjustment, DBA/1 male mice were divided into groups, each group was consisted of 10 mice. Each animal was injected intradermally at the 2-3 cm base of the tail an emulsion of 100 μg Type II collagen. On day 21, a second booster dose of 100 μg Type II collagen emulsion was injected. Negative control group of mice are injected with equal amount of 0.9% Sodium Chloride solution.
(§2) On day 22, groups of mice were given different drugs once each day for 28 days (4 weeks) until day 49 (end of week 7). The groups of mice were examined for inflammation and status.

[2] = tested on: Collagen induced arthritis in mice; assay: Visual inflammation scoring of paws (0-4 per limb, four limbs summed), collagen induced arthritis; format: in vivo, DBA/1 male mice
Description: Collagen induced arthritis in mice has been the standard animal model for studying rheumatoid arthritis and other polyarthritis. DBA/1 male mice weighted 20-22 grams were purchased from Hua-Fu-Kang Biotechnology Limited, Beijing, China. Type II collagen and Complete Freund's Adjuvant were purchased from Chondrex Inc., Redmond, Wash., USA. Auranofin was purchased from Sigma, USA and Dexamethasone was purchased from Jin-Yao Amino Acid Company, Tianjing, China. Gold25(peptide)9 cluster molecules were prepared according to Example 1.
as §1, §2
The inflammation was assessed by means of a visual scoring method where mouse individual paws were graded from 0-4 as follows:
0 score: no redness and no swelling;
1 score: mild erythema at the toes;
2 scores: toe joints and paw swelling;
3 scores: swelling below ankle
4 scores: all ankle and paw swelling. • All four limbs of each mouse were examined and scored, and scores of all four limbs were added together for each mouse.

[3] = tested on: Collagen induced arthritis in mice; assay: Pictures of hind limb swelling (FIG. 6), collagen induced arthritis; format: in vivo, DBA/1 male mice; settings: end of 7 weeks of the experiment
Method: as §1, §2

[4] = tested on: Collagen induced arthritis in mice; assay: 3D CT scan of paw joints, bone density changes (FIG. 7); format: in vivo, DBA/1 male mice; settings: end of week 7
Method: as §1, §2

[5] = tested on: Collagen induced arthritis in mice; assay: Hematoxylin and eosin histology of hind limb joint sections (FIG. 8); format: in vivo, DBA/1 male mice; settings: H&E
Method: as §1, §2
To evaluate the soft tissue damages around the joint area, the joint tissues of the hind limbs of each mouse groups were then fixed, embedded, sectioned into slides and hematoxylin and eosin stained to examine the histology and histopathology changes at the joints.

[6] = Amount of gold at the arthritic joints (FIG. 9); format: in vivo, DBA/1 male mice; settings: group 3, oral 1 mg/kg daily
Method: as §2
In reference to FIG. 9, the amount of gold was measured at the arthritic joints of the variously treated mice groups.

[7] = tested on: IL-6; assay: Amount of IL-6 at the arthritic joints (FIG. 10); format: in vivo, DBA/1 male mice
Method: as §2
(§3) In reference to FIGS. 10 and 11, the amount of pro-inflammation cytokine factors IL-6 and IL-1β were measured at the arthritic joints of the variously treated mice groups.

[8] = tested on: IL-1β; assay: Amount of IL-1β at the arthritic joints (FIG. 11); format: in vivo, DBA/1 male mice
Method: as §2, §3

[9] = orally administered form, crystalline solid; cited from earlier work
[10] = light and heat; cited from earlier work
[11] = patients; cited from earlier work
[12] = tested on: TNF; assay: Amount of TNF at the arthritic joints; format: in vivo, DBA/1 male mice
Method: as §2
In reference to […], the amount of pro-inflammation cytokine TNF was measured at the arthritic joints of the variously treated mice groups. […] The observed significant differences in effectiveness between orally administering and intraperitoneally administering methods may result from the fact that the amount of gold can be more and directly up-taken through phagocytosis by the macrophage cells peritoneum. This effect is also largely consistent with the prior observation that gold25(peptide)9 cluster molecules are capable of induce apoptosis in various cells, and its binding ability of cysteine-rich pro-inflammation cytokines helps with its anti-inflammation effect.

CC[PH](CC)(CC)[Au][S][C@@H]1O[C@H](COC(C)=O)[C@@H](OC(C)=O)[C@H](OC(C)=O)[C@H]1OC(C)=O [Auranofin, 2,3,4,6-tetra-o-acetyl-1-thio-β-D-glucopyranosato-S-(triethyl-phosphine)-gold, reference compound]
Mice Body Weight ([1]; 0 w (before dosing, which starts day 22), group i.g. 1 mg/kg): 21.60 ± 1.17 g
Mice Body Weight ([1]; 1 wk (before dosing), group i.g. 1 mg/kg): 23.25 ± 1.11 g
Mice Body Weight ([1]; 2 wk (before dosing), group i.g. 1 mg/kg): 23.75 ± 1.11 g
Mice Body Weight ([1]; 3 wk (before dosing), group i.g. 1 mg/kg): 24.35 ± 1.53 g
Mice Body Weight ([1]; 4 wk, i.g. 1 mg/kg once daily from day 22): 22.10 ± 1.10 g
Mice Body Weight ([1]; 5 wk, i.g. 1 mg/kg once daily from day 22): 21.74 ± 1.14 g
Mice Body Weight ([1]; 6 wk, i.g. 1 mg/kg once daily from day 22): 23.24 ± 0.08 g
Mice Body Weight ([1]; 7 wk, i.g. 1 mg/kg once daily from day 22): 23.33 ± 0.25 g
Inflammation visual score (sum of four limbs, each 0-4) ([2]; 35 d, i.g. 1 mg/kg once daily from day 22): 6.66 ± 2.00
Inflammation visual score (sum of four limbs, each 0-4) ([2]; 38 d, i.g. 1 mg/kg once daily from day 22): 5.77 ± 3.42
Inflammation visual score (sum of four limbs, each 0-4) ([2]; 42 d, i.g. 1 mg/kg once daily from day 22): 8.11 ± 2.47
Inflammation visual score (sum of four limbs, each 0-4) ([2]; 45 d, i.g. 1 mg/kg once daily from day 22): 8.33 ± 3.42
Inflammation visual score (sum of four limbs, each 0-4) ([2]; 49 d, i.g. 1 mg/kg once daily from day 22): 9.88 ± 3.06
Swelling scores (in words) ([2]; oral 1 mg/kg body weight): slightly lower swelling scores
Hind limb swelling in pictures (FIG. 6) ([3]; oral 1 mg/kg daily): swelling and no obvious improvement
Bone deformation and osteolysis of paw joints, 3D CT ([4]; oral 1 mg/kg daily): still developed bone deformation and osteolysis
Joint histopathology (bone erosion, soft tissue damage, synovial macrophage infiltration) ([5]; oral 1 mg/kg daily): significant soft tissue damages at the joint areas, and large number of infiltration of synovial macrophage cells
Amount of gold at the arthritic joints [6]: Less but comparable amount gold
Amount of IL-6 at the arthritic joints ([7]; group 3, oral 1 mg/kg daily): remained high
Amount of IL-1β at the arthritic joints ([8]; group 3, oral 1 mg/kg daily): remained high
Solubility in water [9]: insoluble in water
Stability of the powder [10]: unstable and must be protected from light and heat
Side effects [11]: Diarrhea is the most commonly reported

C[C@@H]1C[C@H]2[C@@H]3CCC4=CC(=O)C=C[C@]4(C)[C@@]3(F)[C@@H](O)C[C@]2(C)[C@@]1(O)C(=O)CO [DEX, Dexamethasone, reference compound]
Mice Body Weight ([1]; 2 wk (before dosing), group i.g. 0.5 mg/kg): 23.20 ± 1.06 g
Mice Body Weight ([1]; 3 wk (before dosing), group i.g. 0.5 mg/kg): 23.50 ± 1.02 g
Inflammation visual score (sum of four limbs, each 0-4) ([2]; 35 d, i.g. 0.5 mg/kg once daily from day 22): 0.22 ± 0.44
Inflammation visual score (sum of four limbs, each 0-4) ([2]; 38 d, i.g. 0.5 mg/kg once daily from day 22): 0.33 ± 0.71
Inflammation visual score (sum of four limbs, each 0-4) ([2]; 42 d, i.g. 0.5 mg/kg once daily from day 22): 1.22 ± 1.30
Inflammation visual score (sum of four limbs, each 0-4) ([2]; 45 d, i.g. 0.5 mg/kg once daily from day 22): 1.33 ± 1.00
Inflammation visual score (sum of four limbs, each 0-4) ([2]; 49 d, i.g. 0.5 mg/kg once daily from day 22): 1.22 ± 0.97

Au25 (peptide)9: metallic 25 gold atom cluster binding 9 peptides of SEQ ID NO: 1 Cys-Cys-Tyr-Gly-Gly-Pro-Lys-Lys-Lys-Arg-Lys-Pro-Gly (CCYGGPKKKRKPG; cysteine pairing not given here; also: 9 peptides bound to Au25 gold cluster)
Mice Body Weight ([1]; 0 w (before dosing, which starts day 22), group i.g. 50 mg/kg): 21.60 ± 1.31 g
Mice Body Weight ([1]; 0 w (before dosing, which starts day 22), group i.p. 5 mg/kg): 22 ± 1.27 g
Mice Body Weight ([1]; 1 wk (before dosing), group i.g. 50 mg/kg): 23.05 ± 1.04 g
Mice Body Weight ([1]; 1 wk (before dosing), group i.p. 5 mg/kg): 23.25 ± 1.21 g
Mice Body Weight ([1]; 2 wk (before dosing), group i.g. 50 mg/kg): 23.40 ± 1.33 g
Mice Body Weight ([1]; 2 wk (before dosing), group i.p. 5 mg/kg): 24.13 ± 0.99 g
Mice Body Weight ([1]; 3 wk (before dosing), group i.g. 50 mg/kg): 24.10 ± 1.50 g
Mice Body Weight ([1]; 3 wk (before dosing), group i.p. 5 mg/kg): 24.00 ± 0.85 g
Mice Body Weight ([1]; 4 wk, i.g. 50 mg/kg once daily from day 22): 22.66 ± 1.64 g
Mice Body Weight ([1]; 4 wk, i.p. 5 mg/kg once daily from day 22): 23.30 ± 0.84 g
Mice Body Weight ([1]; 5 wk, i.g. 50 mg/kg once daily from day 22): 22.35 ± 1.73 g
Mice Body Weight ([1]; 5 wk, i.p. 5 mg/kg once daily from day 22): 23.01 ± 0.70 g
Mice Body Weight ([1]; 6 wk, i.g. 50 mg/kg once daily from day 22): 23.23 ± 1.71 g
Mice Body Weight ([1]; 6 wk, i.p. 5 mg/kg once daily from day 22): 22.63 ± 1.71 g
Mice Body Weight ([1]; 7 wk, i.g. 50 mg/kg once daily from day 22): 23.43 ± 1.47 g
Mice Body Weight ([1]; 7 wk, i.p. 5 mg/kg once daily from day 22): 22.47 ± 1.43 g
Inflammation visual score (sum of four limbs, each 0-4) ([2]; 35 d, i.g. 50 mg/kg once daily from day 22): 6.13 ± 3.09
Inflammation visual score (sum of four limbs, each 0-4) ([2]; 35 d, i.p. 5 mg/kg once daily from day 22): 8.00 ± 2.78
Inflammation visual score (sum of four limbs, each 0-4) ([2]; 38 d, i.g. 50 mg/kg once daily from day 22): 7.00 ± 3.07
Inflammation visual score (sum of four limbs, each 0-4) ([2]; 38 d, i.p. 5 mg/kg once daily from day 22): 7.77 ± 4.49
Inflammation visual score (sum of four limbs, each 0-4) ([2]; 42 d, i.g. 50 mg/kg once daily from day 22): 8.88 ± 3.04
Inflammation visual score (sum of four limbs, each 0-4) ([2]; 42 d, i.p. 5 mg/kg once daily from day 22): 7.00 ± 3.20
Inflammation visual score (sum of four limbs, each 0-4) ([2]; 45 d, i.g. 50 mg/kg once daily from day 22): 8.88 ± 3.52
Inflammation visual score (sum of four limbs, each 0-4) ([2]; 45 d, i.p. 5 mg/kg once daily from day 22): 6.38 ± 2.33
Inflammation visual score (sum of four limbs, each 0-4) ([2]; 49 d, i.g. 50 mg/kg once daily from day 22): 9.13 ± 0.48
Inflammation visual score (sum of four limbs, each 0-4) ([2]; 49 d, i.p. 5 mg/kg once daily from day 22): 5.88 ± 3.40
Swelling and joint deformity (in words) ([2]; i.p. 5 mg/kg body weight, 3′ week of treatment): significantly improved
Swelling scores (in words) ([2]; oral 50 mg/kg body weight, by the end of 4 weeks of treatment): better scores than Auranofin, but still developed comparable inflammation
Hind limb swelling in pictures (FIG. 6) ([3]; i.p. 5 mg/kg daily): obvious reduced swelling and improvement in deformation
Hind limb swelling in pictures (FIG. 6) ([3]; oral 50 mg/kg daily): still obvious swelling and slightly better condition
Bone density, deformation and osteolysis of paw joints, 3D CT ([4]; i.p. 5 mg/kg daily): significant improvement on the bone density comparing the non-treated arthritis mice, and no obvious osteolysis and only slight bone deformation
Bone deformation and osteolysis of paw joints, 3D CT ([4]; oral 50 mg/kg daily): still developed bone deformation and osteolysis
Joint histopathology (bone erosion, soft tissue damage, synovial macrophage infiltration) ([5]; i.p. 5 mg/kg daily): the bone erosion is significantly less and no apparent number of synovial macrophage cells infiltration
Joint histopathology (bone erosion, soft tissue damage, synovial macrophage infiltration) ([5]; oral 50 mg/kg daily): reduced soft tissue damages and less macrophage infiltration
Amount of IL-6 at the arthritic joints ([7]; group 4, oral 50 mg/kg daily): reduced these two cytokines to the similar level as that of Dex
Amount of IL-6 at the arthritic joints ([7]; group 5, i.p. 5 mg/kg daily): reduced these two cytokines to the similar level as that of Dex
Amount of IL-1β at the arthritic joints ([8]; group 4, oral 50 mg/kg daily): reduced these two cytokines to the similar level as that of Dex
Amount of IL-1β at the arthritic joints ([8]; group 5, i.p. 5 mg/kg daily): reduced these two cytokines to the similar level as that of Dex
Amount of TNF at the arthritic joints ([12]; group 4, oral 50 mg/kg daily): also reduced the amount of TNF
Amount of TNF at the arthritic joints ([12]; group 5, i.p. 5 mg/kg daily): dramatically reduced the TNF generation
